In US12667572B2, “Tricyclic compounds useful in the treatment of cancer, autoimmune and inflammatory disorders” (SCHRÖDINGER, INC., priority 2021, dated 2026):
Read-outs that look alike come from different tables or passages of the source.

Columns and labels:
[1] = tested on: IL10 secretion in OCI-LY10 cells; experiment: Human IL10 secretion assay, Assay 2 (MSD); format: cell-based; conditions: 24 h incubation, Meso Scale Discovery, read-out: IL-10 Secretion IC50 [nM] Assay 2
Protocol: IL10 is one of the cytokines that are regulated via activation of NF-kB signaling. For example, in ABC-DLBCL cell lines, the activated NF-kB signaling leads to increased IL10 secretion. Inhibition of NF-kB signaling has been shown leading to decreased IL10 secretion.
Assay 2: OCI-LY10 cells were seeded in IMEM supplemented with 20% fetal bovine serum at 4.8×10^5 cells per 160 μL per well in 96-well V-bottom cell culture plates (corning, 3894), treated with 120 nL of 3-fold serial compound dilutions, starting at 4 mM. The final vehicle concentration was 0.075% DMSO in all wells. After a 24 h incubation, human IL-10 precoated plates (Meso Scale Discovery) were washed 3 times with PBST, and 50 μL culture medium was aspirated into the MSD plate and incubated at 4° C. overnight. The supernatant was then discarded, and the wells were washed 3 times with PB ST. SULFO-TAG Anti-human IL-10 Antibody (50×) was diluted 50-fold according to the Meso Scale Protocol, then 25 μL of SULFO-TAG Anti-human IL-10 Antibody (1×) was added. After 2 h of incubation at RT, the supernatant was discarded, and the well was washed 3 times with PBST. 2×read buffer was added and the signal was read on an MSD Sector S600. The effect of a particular compound on IL10 secretion is shown relative to the effect of DMSO; set as 100%. IC50 values (nM) were determined using 4-parametric curve-fitting.

[2] = molecular target: T1, full-length MALT1 protein His-MALT1(1-824) (Homo sapiens, UniProt Q9UDY8); experiment: MALT1 protease assay, Assay 2 (1 nM MALT1, Ac-LRSR-AMC substrate); format: biochemical; conditions: 1 nM MALT1, 50 μM Ac-LRSR-AMC, 2 h pre-incubation, 8 hr incubation at RT
T1 construct: full-length MALT1 protein His-MALT1(1-824); His (N); made in house; host or cells: baculovirus-infected insect cells
T1 sequence (Q9UDY8 1-824): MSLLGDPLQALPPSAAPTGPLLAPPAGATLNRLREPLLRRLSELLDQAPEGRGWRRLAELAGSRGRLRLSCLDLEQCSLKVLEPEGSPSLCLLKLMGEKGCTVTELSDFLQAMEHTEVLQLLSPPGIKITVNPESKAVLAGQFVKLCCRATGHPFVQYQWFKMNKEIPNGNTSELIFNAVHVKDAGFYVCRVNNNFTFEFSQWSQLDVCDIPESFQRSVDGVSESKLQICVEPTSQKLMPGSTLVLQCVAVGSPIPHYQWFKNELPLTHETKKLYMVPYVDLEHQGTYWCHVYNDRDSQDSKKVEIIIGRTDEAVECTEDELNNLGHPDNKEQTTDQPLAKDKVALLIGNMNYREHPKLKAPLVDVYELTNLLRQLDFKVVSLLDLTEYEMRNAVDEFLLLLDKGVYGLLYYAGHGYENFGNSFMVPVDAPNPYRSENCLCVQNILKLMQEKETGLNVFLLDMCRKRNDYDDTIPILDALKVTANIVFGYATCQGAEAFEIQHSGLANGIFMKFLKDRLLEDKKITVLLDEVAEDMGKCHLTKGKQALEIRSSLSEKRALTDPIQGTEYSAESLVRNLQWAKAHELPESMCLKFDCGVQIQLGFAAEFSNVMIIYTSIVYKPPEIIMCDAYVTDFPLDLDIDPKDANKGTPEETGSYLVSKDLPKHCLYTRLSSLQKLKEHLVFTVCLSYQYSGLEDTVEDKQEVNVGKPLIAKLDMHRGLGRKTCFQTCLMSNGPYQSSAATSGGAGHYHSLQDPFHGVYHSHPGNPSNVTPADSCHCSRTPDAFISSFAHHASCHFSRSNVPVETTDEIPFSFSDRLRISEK
Method in brief: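 Compounds (0.1% DMSO final) sat 2 h at RT with insect-cell-expressed His-MALT1(1-824), in 50 mM Tris pH 7.5, 600 mM sodium citrate, 1 mM DTT, 1 mM EDTA, 0.05% BSA. Cleavage of 50 μM Ac-LRSR-AMC (Km ~100 μM) ran 8 h at RT, read as AMC fluorescence. IC50 and Hill coefficient fitted to % remaining activity.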

SMILES | IC50 ([1]; Homo sapiens) | IC50 [2] | IC50 [1]
CC1(C)C[C@H](C(=O)Nc2cnc(-n3nccn3)c(C(F)(F)F)c2)c2cnc3cc(Cl)nn3c21 (single isomer, unassigned) [Example 44, N-(6-(2H-1,2,3-triazol-2-yl)-5˜(trifluoromethyl)pyridin-3-yl)-2-chloro-8,8-dimethyl-7,8-dihydro-6H-cyclopenta[e]pyrazolo[1,5-a]pyrimidine-6-carboxamide] | 100 to 1000 nM | < 10 nM | 
CC1(C)CC(C(=O)Nc2cnc(-n3nccn3)c(C(F)F)c2)c2cnc3cc(Cl)nn3c21 (single isomer, unassigned) [Example 47, 2-chloro-N-(5-(difluoromethyl)-6-(2H-1,2,3-triazol-2-yl)pyridin-3-yl)-8,8-dimethyl-7,8-dihydro-6H-cyclopenta[e]pyrazolo[1,5-a]pyrimidine-6-carboxamide] | 100 to 1000 nM | < 10 nM | 
C[C@H](O)c1cnn(-c2ncc(NC(=O)[C@H]3CC(C)(C)c4c3cnc3cc(Cl)nn43)cc2Cl)n1 (single isomer, unassigned) [Example 49, 2-chloro-N-(5-chloro-6-(4-(1-hydroxyethyl)-2H-1,2,3-triazol-2-yl)pyridin-3-yl)-8,8-dimethyl-7,8-dihydro-6H-cyclopenta[e]pyrazolo[1,5-a]pyrimidine-6-carboxamide] | 100 to 1000 nM | < 10 nM | 
C[C@@H](O)c1cnn(-c2ncc(NC(=O)[C@H]3CC(C)(C)c4c3cnc3cc(Cl)nn43)cc2Cl)n1 (single isomer, unassigned) [Example 51, 2-chloro-N-(5-chloro-6-(4-(1-hydroxyethyl)-2H-1,2,3-triazol-2-yl)pyridin-3-yl)-8,8-dimethyl-7,8-dihydro-6H-cyclopenta[e]pyrazolo[1,5-a]pyrimidine-6-carboxamide] | 100 to 1000 nM | < 10 nM | 
C[C@@]1(C(F)(F)F)C[C@H](C(=O)Nc2cnc(-n3nccn3)c(C(F)(F)F)c2)c2cnc3cc(Cl)nn3c21 (single isomer, unassigned) [Example 54, N-(6-(2H-1,2,3-triazol-2-yl)-5˜(trifluoromethyl)pyridin-3-yl)-2-chloro-8-methyl-8-(trifluoromethyl)-7,8-dihydro-6H-cyclopenta[e]pyrazolo[1,5-a]pyrimidine-6-carboxamide] | 100 to 1000 nM | < 10 nM | 
C[C@@]1(C(F)(F)F)C[C@H](C(=O)Nc2cnc(-n3nccn3)c(C(F)(F)F)c2)c2cnc3cc(Cl)nn3c21 (single isomer, unassigned) [Example 56, N-(6-(2H-1,2,3-triazol-2-yl)-5˜(trifluoromethyl)pyridin-3-yl)-2-chloro-8-methyl-8-(trifluoromethyl)-7,8-dihydro-6H-cyclopenta[e]pyrazolo[1,5-a]pyrimidine-6-carboxamide] |  | < 10 nM | 100 to 1000 nM
C[C@@]1(C(F)(F)F)C[C@H](C(=O)Nc2cnc(-n3nccn3)c(C(F)F)c2)c2cnc3cc(Cl)nn3c21 (single isomer, unassigned) [Example 64, 2-chloro-N-(5-(difluoromethyl)-6-(2H-1,2,3-triazol-2-yl)pyridin-3-yl)-8-methyl-8-(trifluoromethyl)-7,8-dihydro-6H-cyclopenta[e]pyrazolo[1,5-a]pyrimidine-6-carboxamide] | 100 to 1000 nM | 10 to 100 nM | 
C[C@]1(C(F)(F)F)C[C@H](C(=O)Nc2cnc(-n3nccn3)c(C(F)F)c2)c2cnc3cc(Cl)nn3c21 (single isomer, unassigned) [Example 66, 2-chloro-N-(5-(difluoromethyl)-6-(2H-1,2,3-triazol-2-yl)pyridin-3-yl)-8-methyl-8-(trifluoromethyl)-7,8-dihydro-6H-cyclopenta[e]pyrazolo[1,5-a]pyrimidine-6-carboxamide] | 100 to 1000 nM | 10 to 100 nM | 
CN(C(=O)c1ncc(NC(=O)[C@H]2CC(C)(C)c3c2cnc2cc(Cl)nn32)cc1C(F)F)C1CC1 (single isomer, unassigned) [Example 73, 2-chloro-N-(6-(cyclopropyl(methyl)carbamoyl)-5-(difluoromethyl)pyridin-3-yl)-8,8-dimethyl-7,8-dihydro-6H-cyclopenta[e]pyrazolo[1,5-a]pyrimidine-6-carboxamide] | 10 to 100 nM | < 10 nM | 
CC1(C)CC(C(=O)Nc2cnc(OC3CC3)c(Cl)c2)c2cnc3cc(Cl)nn3c21 (single isomer, unassigned) [Example 75, 2-chloro-N-(5-chloro-6-cyclopropoxypyridin-3-yl)-8,8-dimethyl-7,8-dihydro-6H-cyclopenta[e]pyrazolo[1,5-a]pyrimidine-6-carboxamide] | 100 to 1000 nM | 10 to 100 nM | 
CC1(C)CC(C(=O)Nc2cnc(-n3nccn3)c(C#N)c2)c2cnc3cc(F)nn3c21 (single isomer, unassigned) [Example 89, N-(5-cyano-6-(2H-1,2,3-triazol-2-yl)pyridin-3-yl)-2-fluoro-8,8-dimethyl-7,8-dihydro-6H-cyclopenta[e]pyrazolo[1,5-a]pyrimidine-6-carboxamide] | 100 to 1000 nM | < 10 nM | 

Results, then the molecule that gave them:

IC50 ([1]; Homo sapiens) | IC50 [2] | IC50 [1] | SMILES
100 to 1000 nM | < 10 nM |  | CC1(C)CC(C(=O)Nc2cnc(OC(F)F)c(Cl)c2)c2cnc3cc(Cl)nn3c21 (single isomer, unassigned) [Example 68, 2-chloro-N-(5-chloro-6-(difluoromethoxy)pyridin-3-yl)-8,8-dimethyl-7,8-dihydro-6H-cyclopenta[e]pyrazolo[1,5-a]pyrimidine-6-carboxamide]
10 to 100 nM | < 10 nM |  | CC1(C)C[C@H](C(=O)Nc2cnc(OC(F)F)c(Cl)c2)c2cnc3cc(F)nn3c21 (single isomer, unassigned) [Example 77, N-(5-chloro-6-(difluoromethoxy)pyridin-3-yl)-2-fluoro-8,8-dimethyl-7,8-dihydro-6H-cyclopenta[e]pyrazolo[1,5-a]pyrimidine-6-carboxamide]
10 to 100 nM | < 10 nM |  | CC1(C)CC(C(=O)Nc2cnc(OC(F)F)c(C#N)c2)c2cnc3cc(Cl)nn3c21 (single isomer, unassigned) [Example 79, 2-chloro-N-(5-cyano-6-(difluoromethoxy)pyridin-3-yl)-8,8-dimethyl-7,8-dihydro-6H-cyclopenta[e]pyrazolo[1,5-a]pyrimidine-6-carboxamide]
100 to 1000 nM | 10 to 100 nM |  | CC1(C)CC(C(=O)Nc2cnc(OC3CC3)c(C#N)c2)c2cnc3cc(F)nn3c21 (single isomer, unassigned) [Example 81, N-(5-cyano-6-cyclopropoxypyridin-3-yl)-2-fluoro-8,8-dimethyl-7,8-dihydro-6H-cyclopenta[e]pyrazolo[1,5-a]pyrimidine-6-carboxamide]
10 to 100 nM | < 10 nM |  | CC1(C)CC(C(=O)Nc2cnc(OC(F)F)c(C#N)c2)c2cnc3cc(F)nn3c21 (single isomer, unassigned) [Example 84, N-(5-cyano-6-(difluoromethoxy)pyridin-3-yl)-2-fluoro-8,8-dimethyl-7,8-dihydro-6H-cyclopenta[e]pyrazolo[1,5-a]pyrimidine-6-carboxamide]
100 to 1000 nM | 10 to 100 nM |  | CC1(C)CC(C(=O)Nc2cnc(OC(F)F)c(C#N)c2)c2cnc3c(F)c(F)nn3c21 (single isomer, unassigned) [Example 91, N-(5-cyano-6-(difluoromethoxy)pyridin-3-yl)-2,3-difluoro-8,8-dimethyl-7,8-dihydro-6H-cyclopenta[e]pyrazolo[1,5-a]pyrimidine-6-carboxamide]
